The record followed here is PMC3723632, “A Multi-targeted Drug Candidate with Dual Anti-HIV and Anti-HSV Activity” (PLoS Pathogens, 2013).

Format in all cases: biochemical
In assay [1] the target is mutant HIV-1 RT enzymes (K65R and K70R). Description: Mutant HIV-1 RT enzyme inhibition. Particulars: K65R and K70R mutant HIV-1 RT, data not shown. The method, then:
In all assay systems the drugs were administered prior to, or at the time of, virus infection which is relevant from a microbicidal application viewpoint, for which the drugs are preferentially already present at the time of infection. However, it might well be possible that these drugs are also effective when exposed shortly after virus infection given the DNA polymerase/HIV reverse transcriptase as being one of the intracellular targets of PMEO-DAPym. […] Thus, PMEO-DAPym may have a rather high genetic barrier suppressing a wide variety of clinical HSV and HIV-1 clade isolates, including clinically relevant mutant viruses.

Another assay concerns the target T1, HIV-1 RT (Human immunodeficiency virus type 1 group M subtype B, UniProt P03366).
T1 construct: 4 µl of recombinant HIV-1 RT
Briefly: HIV-1 reverse transcriptase assay. The conditions noted are these: dATP (3.2 µM) as competing substrate, poly rU.dA primer/template. The method, then: […] In the HSV DNA polymerase assays, the inhibitory effect of adefovir-pp or PMEA-DAPym-pp on herpesvirus DNA polymerase-catalyzed polymerization was also determined in the presence of radiolabeled [^3H]dGTP (1 mCi/ml; 2.8 µM), [^3H]dTTP (1 mCi/ml; 1 µM), or [^3H]dCTP (1 mCi/ml; 2.5 µM) as competing dNTP in the presence of 0.8 µl (5 mM) of the other dNTPs in the reaction mixture as described above. The reaction was started by the addition of 4 µl of recombinant HSV-1 DNA polymerase (kindly provided by M.W. Wathen, at that time at Pfizer, Kalamazoo, MI) or 4 µl of recombinant HIV-1 RT (in 20 mM Tris.HCl, pH 8.0; 1 mM DTT; 0.1 mM EDTA; 0.2 M NaCl; 40% glycerol), and the reaction mixture was incubated for 60 min (HSV-1 DNA polymerase) or 30 min (HIV-1 RT) at 37°C. Then, 1 ml of ice-cold 5% TCA in 0.02 M Na4P2O7.10 H2O was added to terminate the polymerisation reaction, after which the acid-insoluble precipitate (radiolabeled DNA) was captured onto Whatman glass fiber filters (type GF/C; GE Healthcare UK Limited, Buckinghamshire, UK) and further washed with 5% TCA and ethanol to remove free radiolabeled dNTP. Radioactivity was determined in a Perkin Elmer Tri-Carb 2810 TR liquid scintillation counter.

For a further assay, the target named is T2, HSV DNA polymerase (Human herpesvirus 1, UniProt P04293).
T2 construct: gift of M.W. Wathen (Pfizer, Kalamazoo, MI)
Description: HSV DNA polymerase assay. The conditions noted are these: for IC50: gapped calf thymus DNA. The method, then:
The reaction mixture (40 µl) for the HSV-1 DNA polymerase and HIV-1 RT assays contained 4 µl of Premix (200 mM Tris.HCl, pH 7.5; 2 mM DTT; 30 mM MgCl2), 4 µl of BSA (5 mg/ml), 1.6 µl of activated calf thymus DNA (1.25 mg/ml), 0.8 µl of dCTP (5 mM), 0.8 µl of dTTP (5 mM), 0.8 µl of dGTP (5 mM), 2 µl of radiolabeled [^3H]dATP (1 mCi/ml) (3.2 µM), 18 µl of H2O, and 4 µl of adefovir-pp or PMEO-DAPym-pp at different concentrations (i.e., 200, 20, 2, and 0.2 µM). In the HSV DNA polymerase assays, the inhibitory effect of adefovir-pp or PMEA-DAPym-pp on herpesvirus DNA polymerase-catalyzed polymerization was also determined in the presence of radiolabeled [^3H]dGTP (1 mCi/ml; 2.8 µM), [^3H]dTTP (1 mCi/ml; 1 µM), or [^3H]dCTP (1 mCi/ml; 2.5 µM) as competing dNTP in the presence of 0.8 µl (5 mM) of the other dNTPs in the reaction mixture as described above. The reaction was started by the addition of 4 µl of recombinant HSV-1 DNA polymerase (kindly provided by M.W. Wathen, at that time at Pfizer, Kalamazoo, MI) or 4 µl of recombinant HIV-1 RT (in 20 mM Tris.HCl, pH 8.0; 1 mM DTT; 0.1 mM EDTA; 0.2 M NaCl; 40% glycerol), and the reaction mixture was incubated for 60 min (HSV-1 DNA polymerase) or 30 min (HIV-1 RT) at 37°C. Then, 1 ml of ice-cold 5% TCA in 0.02 M Na4P2O7.10 H2O was added to terminate the polymerisation reaction, after which the acid-insoluble precipitate (radiolabeled DNA) was captured onto Whatman glass fiber filters (type GF/C; GE Healthcare UK Limited, Buckinghamshire, UK) and further washed with 5% TCA and ethanol to remove free radiolabeled dNTP. Radioactivity was determined in a Perkin Elmer Tri-Carb 2810 TR liquid scintillation counter.

Each structure is given as a SMILES string. Converted amounts (≈) assume the structure as drawn.

T2 sequence (P04293 whole entry): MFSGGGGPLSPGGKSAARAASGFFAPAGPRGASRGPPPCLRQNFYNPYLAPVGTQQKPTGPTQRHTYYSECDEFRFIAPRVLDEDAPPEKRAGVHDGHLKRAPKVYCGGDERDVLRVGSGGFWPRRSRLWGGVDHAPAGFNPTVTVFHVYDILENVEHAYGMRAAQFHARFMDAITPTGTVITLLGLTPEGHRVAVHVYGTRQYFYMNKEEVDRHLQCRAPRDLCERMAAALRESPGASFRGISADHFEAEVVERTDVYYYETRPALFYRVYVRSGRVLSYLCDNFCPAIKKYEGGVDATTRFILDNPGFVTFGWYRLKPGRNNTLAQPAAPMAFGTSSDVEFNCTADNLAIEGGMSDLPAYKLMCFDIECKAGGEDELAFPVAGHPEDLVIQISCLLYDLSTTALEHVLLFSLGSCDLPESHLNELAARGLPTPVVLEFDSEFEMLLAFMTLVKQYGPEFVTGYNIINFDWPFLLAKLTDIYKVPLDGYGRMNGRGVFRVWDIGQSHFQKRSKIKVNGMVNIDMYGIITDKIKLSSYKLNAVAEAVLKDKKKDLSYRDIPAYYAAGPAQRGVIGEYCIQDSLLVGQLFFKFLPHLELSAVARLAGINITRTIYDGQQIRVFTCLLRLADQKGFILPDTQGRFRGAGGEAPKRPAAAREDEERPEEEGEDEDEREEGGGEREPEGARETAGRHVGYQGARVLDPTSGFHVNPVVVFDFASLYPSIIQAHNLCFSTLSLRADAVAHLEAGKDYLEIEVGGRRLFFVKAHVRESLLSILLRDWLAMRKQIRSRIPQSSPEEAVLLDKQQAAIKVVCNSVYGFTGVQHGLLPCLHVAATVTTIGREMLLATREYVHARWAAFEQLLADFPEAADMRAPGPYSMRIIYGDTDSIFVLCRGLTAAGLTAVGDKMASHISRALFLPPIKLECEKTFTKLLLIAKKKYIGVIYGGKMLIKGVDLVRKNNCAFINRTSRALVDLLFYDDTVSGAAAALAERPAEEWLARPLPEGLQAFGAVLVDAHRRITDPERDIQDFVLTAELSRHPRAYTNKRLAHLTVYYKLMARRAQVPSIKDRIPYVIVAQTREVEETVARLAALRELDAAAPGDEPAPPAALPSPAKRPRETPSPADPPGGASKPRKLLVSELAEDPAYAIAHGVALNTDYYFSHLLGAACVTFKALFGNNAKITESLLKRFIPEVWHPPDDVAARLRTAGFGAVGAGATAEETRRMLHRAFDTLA

As a reminder, the IC50 is the midpoint of a concentration-inhibition curve. In the case of `Nc1cc(OCCOCP(=O)(O)OP(=O)(O)OP(=O)(O)O)nc(N)n1` [PMEO-DAPym-pp], the IC50 result in assay [1] was “submicromolar range”; on HIV-1 RT it was 0.19 ± 0.21 µg/mL (≈ 0.448 µM); on HIV-1 RT (listed as PMEO-DAPym-diphosphate), 0.43 µg/mL (≈ 1.01 µM); on HSV DNA polymerase ([3H]dATP as competing substrate), 0.52 ± 0.03 µg/mL (≈ 1.23 µM); at HSV DNA polymerase ([3H]dCTP as competing substrate) it was 5.2 ± 4.8 µg/mL (≈ 12.3 µM); at HSV DNA polymerase ([3H]dGTP as competing substrate), 3.1 ± 1.0 µg/mL (≈ 7.31 µM). The same compound gave an IC50 on HSV DNA polymerase ([3H]dTTP as competing substrate) of 5.2 ± 0.3 µg/mL (≈ 12.3 µM). Moreover, on HSV DNA polymerase (dCTP, dGTP, dTTP, range), the “IC50, incorporation of other [3H]dNTPs” value is 3.1 to 5.2 µg/mL.
